These results are taken from US6806276B2, “2-oxoquinoline compounds and pharmaceutical uses thereof” (Japan Tobacco Inc., priority 1999, dated 2004).

Test [1] has as its system carrageenin-induced paw edema. Kind of test: Carrageenin-induced paw edema model (in vivo). Further details: species or system C57BL/6J mice. The note with it: mice, oral in olive oil 1 hour before carrageenin, paw volume 3 hours later. The method, then: [2] Carrageenin-induced paw edema model (in vivo)
C57BL/6J mice (6 to 8 weeks of age) were used. […] After one hour of the administration, 50 μl of 1% solution of carrageenin in normal saline was administered intradermally at foot pad of the right hind paw. Three hours later, the volume of the right hind paw was measured and compared with the initial volume.
For orientation: In the carrageenan paw model, swelling and tenderness develop within hours.

Test [2] has as its target T1, human central type cannabinoid receptor (hCB1) (Homo sapiens, UniProt P21554).
T1 construct: expressed in transfected cells; host or cells: CHO cells
Kind of test: Binding assay (in vitro), [3H]Win55212-2 displacement, membrane fractions of human CB1-CHO. The note with it: hCB1 expressed in CHO cells, [3H]Win55212-2 2 nM, 30° C. 90 minutes; read-out: Ki value Central type receptor (C).
Method: (§1) Membrane fractions of human central type cannabinoid receptor (human CB1-CHO, hereinafter called hCB1) and human peripheral type cannabinoid receptor (human CB2-CHO, hereinafter called hCB2) expressed in CHO cells were used as samples. The reference material (hCB1: 20 μg/ml, hCB2: 5 μg/ml), labeled ligand ([^3H]Win55212-2, 2 nM) and unlabeled ligand Win55212-2 or test compound were added to a 24-well round bottom plate, and the plate was incubated at 30° C. for 90 minutes. 50 mM Tris-HB55 containing 0.2% BSA was used as an assay buffer. After incubation, the mixture was filtered (Packard, Unifilter 24GF/B) and dried, and then a scintillation solution (Packard, Microsint-20) was added thereto to determine the radioactivity of the sample (Packard, Top count A9912V). Nonspecific binding was determined by the addition of excessive amount of Win55212-2 (10 μM), and specific binding was calculated by subtracting the nonspecific binding from total binding determined by the addition of the labeled ligand only. The test compound was dissolved in DMSO to make the final concentration in DMSO to be 0.1%. IC50 value was determined from the proportion of the bound test compound in the specific binding, and K1 value of the test compound was calculated from the ICso value and Kd value of [^3H]Win55212-2. K1 value for the central type receptors/K1 value for peripheral type receptors (C/S) was also calculated as an indicator of the selectivity of the test compound for peripheral type receptors.

The target in test [3] is T2, human peripheral type cannabinoid receptor (hCB2) (Homo sapiens, UniProt P34972).
T2 construct: expressed in transfected cells; host or cells: CHO cells
T2 sequence (P34972 whole entry): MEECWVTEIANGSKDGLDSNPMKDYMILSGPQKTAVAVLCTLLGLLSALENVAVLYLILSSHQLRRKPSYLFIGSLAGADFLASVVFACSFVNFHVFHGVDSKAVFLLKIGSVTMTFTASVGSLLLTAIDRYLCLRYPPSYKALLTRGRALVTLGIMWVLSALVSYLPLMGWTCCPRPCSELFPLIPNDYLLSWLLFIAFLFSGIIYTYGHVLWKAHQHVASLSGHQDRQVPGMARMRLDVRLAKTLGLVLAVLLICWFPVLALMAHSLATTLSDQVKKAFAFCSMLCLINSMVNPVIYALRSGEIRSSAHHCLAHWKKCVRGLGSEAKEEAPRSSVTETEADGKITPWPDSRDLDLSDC
Kind of test: Binding assay (in vitro), [3H]Win55212-2 displacement, membrane fractions of human CB2-CHO.
Method: as §1

T1 sequence (P21554 whole entry): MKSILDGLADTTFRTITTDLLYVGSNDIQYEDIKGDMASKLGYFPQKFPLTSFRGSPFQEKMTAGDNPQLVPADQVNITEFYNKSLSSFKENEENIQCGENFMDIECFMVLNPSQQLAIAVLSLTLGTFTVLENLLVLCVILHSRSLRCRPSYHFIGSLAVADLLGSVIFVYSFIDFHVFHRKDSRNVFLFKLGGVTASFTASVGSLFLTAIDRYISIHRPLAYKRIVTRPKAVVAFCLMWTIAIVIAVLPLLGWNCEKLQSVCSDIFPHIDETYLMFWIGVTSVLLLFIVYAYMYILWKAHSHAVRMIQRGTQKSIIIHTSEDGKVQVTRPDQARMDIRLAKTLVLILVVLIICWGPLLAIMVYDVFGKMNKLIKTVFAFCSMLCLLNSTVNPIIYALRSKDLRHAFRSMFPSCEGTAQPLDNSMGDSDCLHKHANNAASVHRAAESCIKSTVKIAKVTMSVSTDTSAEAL

`CCCCCOc1c(OC)ccc2cc(C(=O)NCc3ccc(F)cc3)c(=O)n(C)c12` [Example 3-40, 1-methyl-7-methoxy-2-oxo-8-pentyloxy-1,2-dihydroquinoline-3-carboxylic acid (4-fluorobenzyl)amide]: the ED60 in test [1] is 1.19 mg/kg; p.o. The inhibitory constant (Ki) in test [2] stood at 703 nM; in test [3] (Ki value Peripheral type receptor (S), hCB2 expressed in CHO cells, [3H]Win55212-2 2 nM, 30° C. 90 minutes) it was 2.13 nM. Also, the “C/S (Ki central type receptors / Ki peripheral type receptors)” value in test [3] (indicator of selectivity for peripheral type receptors) is recorded as 330.

One may read the Ki as a measure of affinity in units of concentration, obtained from inhibition or displacement.
